Reference: patent publication US20050009158A1, “Process for enzymatically resolving an enantiomeric mixture of alpha-hydroxy acids” (priority 2003, published 2005)

How the values were obtained:
[1] = Non-enzymatic hydrolysis of HMB esters in phosphate buffer; format: physicochemical; conditions: for HMB/HMB-ester ratio for non-enzyme catalyzed hydrolysis: ester 1 mM, phosphate buffer pH 7.2, approx. 25° C., 24 hours
Experimental: To carry out the hydrolysis of the ester, HMB-methyl ester (1 mM) was added to a 40 mL reaction vial along with water (12 mL) and a 0.1 M phosphate buffer having a pH of 7.2 (2 mL). The reaction was carried out at a constant temperature of, approximately 25° C. and constant stirring over a period of 24 hours. During the course of the reaction, the pH of the reaction mixture was maintained at 7.2. After the reaction was complete, the reaction solvents were removed from the reaction mixture with a rotary evaporator.
(§1) The non-enzymatic hydrolysis and the lipase mediated hydrolysis reactions were each carried out at a constant temperature of approximately 25° C. with constant stirring over the course of a 24 hour period. During the course of reaction pH of the reaction mixture was maintained at 7.2. After the reaction was complete, the reaction solvents were removed from the reaction mixture with a rotary evaporator.
(§2) After each of the hydrolysis reactions, the dry hydrolysis reaction product containing the α-hydroxy acid of HMB was dissolved in ethanol (10 mL), a sample of the reaction product solution (1 mL) was taken and diluted with additional ethanol (9 mL) and the further diluted solution was filtered through a filter having a pore size of 2 μm (Model manufactured by Millipore Corp. of Bedford, Mass.). The filtered extract was then introduced into the liquid chromatograph and the free acid and residual ester were separated on a C-8 reverse phase liquid chromatography column of the type described above.
(§3) Ethanol was removed from the remaining product mixture by rotary evaporation and the α-hydroxy acid product was re-dissolved in ethyl acetate (5 mL). The solution containing the α-hydroxy acid product was transferred to a 15 mL centrifuge tube to which 1 M sodium bicarbonate (6 mL) was added after which the centrifuge tube was shaken for a period of about five minutes, thus forming an ethyl acetate layer containing HMB-methyl ester and a sodium bicarbonate layer containing D- and L-enantiomers of the α-hydroxy acid, HMB. These layers were then separated with a centrifuge and each of the separated layers were brought to near dryness with a rotary evaporator and the residue from the bicarbonate layer was dissolved in ethanol (5 mL) to form a solution which was filtered and analyzed for D- and L-enantiomers of HMB by chiral liquid chromatography in accordance with the method set forth below.
(§4) The dry residue from the ethyl acetate layer containing HMB-methyl ester was hydrolyzed with 6N HCl (2 mL) for a period of two hours to produce HMB which was solubilized in ethanol. The ethanol solutions were filtered and analyzed for D- and L-enantiomers of HMB by chiral liquid chromatography in accordance with the method set forth below.
(§5) Separation of the D- and L-forms of the α-hydroxy acid of HMB present in the sodium bicarbonate phase was carried out by liquid chromatography (LC) with a UV absorbance detector in tandem with electrospray ionization mass spectrometry in the negative mode (ESI(−)MS). […] The electrospray ionization mass spectrometer utilized was manufactured by Hitachi High Technologies (Model M-8000). The mobile phase composition consisted of 70% ammonium acetate buffer (pH 4, 30 mM) and 30% methanol. A macrocyclic antibiotic based column (Chirobiotic-TAG), manufactured by Advanced Separation Technologies, Inc., Whippany, N.J., was used for the chiral liquid chromatography.

[2] = test system: Aspergillus niger lipase; test: Aspergillus niger lipase catalyzed hydrolysis of HMB esters; format: biochemical; conditions: for extent of ester hydrolysis (in words): Aspergillus niger lipase, RPLC; for HMB/HMB-ester ratio for Aspergillus niger lipase catalyzed hydrolysis: ester 1 mM, lipase 120 mg, pH 7.2, approx. 25° C., 24 hours
Experimental: In one lipase mediated hydrolysis, HMB-methyl ester (1 mM) was added to a 40 mL reaction vial along with water (12 mL), a 0.1 M phosphate buffer with a pH of 7.2 (2 mL) and Aspergillus niger (120 mg).
as §1, §2, §3, §4, §5

[3] = test system: Candida rugosa lipase; test: Candida rugosa lipase catalyzed hydrolysis of HMB esters; format: biochemical; conditions: for extent of ester hydrolysis (in words): Candida rugosa lipase, RPLC; for HMB/HMB-ester ratio for Candida rugosa lipase catalyzed hydrolysis: ester 1 mM, lipase 120 mg, pH 7.2, approx. 25° C., 24 hours
Experimental: In another lipase mediated hydrolysis, HMB-methyl ester (1 mM) was added to a 40 mL reaction vial along with water (12 mL), a 0.1 M phosphate buffer with a pH of 7.2 (2 mL) and Candida rugosa (120 mg).
as §1, §2, §3, §4, §5

[4] = target: T1, Novo 435 (Candida antarctica) lipase (Moesziomyces antarcticus, UniProt P41365); test: Novo 435 (Candida antarctica) lipase catalyzed hydrolysis of HMB esters; format: biochemical; conditions: for extent of ester hydrolysis (in words): Novo 435, RPLC; for HMB/HMB-ester ratio for Novo 435 (Candida antarctica) lipase catalyzed hydrolysis: ester 1 mM, immobilized lipase 6 mg, pH 7.2, approx. 25° C., 24 hours
T1 construct: purchased Novo (only as part of the product name) 435 (also given as 438)
T1 sequence (P41365 26-342): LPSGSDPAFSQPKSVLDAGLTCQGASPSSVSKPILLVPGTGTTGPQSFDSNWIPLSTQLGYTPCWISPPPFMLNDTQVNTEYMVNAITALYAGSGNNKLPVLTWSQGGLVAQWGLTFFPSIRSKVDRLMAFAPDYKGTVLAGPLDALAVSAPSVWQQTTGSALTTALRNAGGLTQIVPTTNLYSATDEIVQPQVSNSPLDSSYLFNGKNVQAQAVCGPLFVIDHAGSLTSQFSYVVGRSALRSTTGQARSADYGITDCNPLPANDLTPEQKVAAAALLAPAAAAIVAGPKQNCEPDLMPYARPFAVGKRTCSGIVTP
Experimental: In another lipase mediated hydrolysis, HMB-methyl ester (1 mM) was added to a 40 mL reaction vial along with water (12 mL), a 0.1 M phosphate buffer with a pH of 7.2 (2 mL) which was contacted with an immobilized sample of Novo 438 (Candida antarctica) (6 mg).
as §1, §2

[5] = target: T2, porcine pancreatic lipase (PPL) (Sus scrofa, UniProt P00591); test: PPL lipase catalyzed hydrolysis of HMB esters; format: biochemical; conditions: for extent of ester hydrolysis (in words): PPL, RPLC; for HMB/HMB-ester ratio for PPL lipase catalyzed hydrolysis: ester 1 mM, PPL 120 mg, pH 7.2, approx. 25° C., 24 hours; for Enantioselectivity of hydrolysis: Free Acid (L/D) / Enantioselectivity of hydrolysis: Ester (L/D): lipase PPL; for Enantioselectivity of hydrolysis: Free Acid (L/D): chiral LC of HMB from bicarbonate layer; for Enantioselectivity of hydrolysis: Ester (L/D): unhydrolyzed ester, chiral LC after 6N HCl hydrolysis
T2 sequence (P00591 1-450): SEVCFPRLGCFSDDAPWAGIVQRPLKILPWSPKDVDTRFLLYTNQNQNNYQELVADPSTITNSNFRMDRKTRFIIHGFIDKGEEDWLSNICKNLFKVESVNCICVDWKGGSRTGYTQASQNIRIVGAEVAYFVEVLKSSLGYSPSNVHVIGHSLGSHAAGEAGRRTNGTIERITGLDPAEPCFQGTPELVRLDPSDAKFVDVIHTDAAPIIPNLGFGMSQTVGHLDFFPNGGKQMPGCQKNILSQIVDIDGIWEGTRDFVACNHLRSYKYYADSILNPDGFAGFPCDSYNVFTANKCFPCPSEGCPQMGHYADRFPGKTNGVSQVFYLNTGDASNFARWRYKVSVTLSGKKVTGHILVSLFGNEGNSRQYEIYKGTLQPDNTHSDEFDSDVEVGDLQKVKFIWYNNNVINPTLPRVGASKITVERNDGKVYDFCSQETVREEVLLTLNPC
Experimental: In another lipase mediated hydrolysis, HMB-methyl ester (1 mM) was added to a 40 mL reaction vial along with water (12 mL), a 0.1 M phosphate buffer with a pH of 7.2 (2 mL) and PPL (120 mg).
as §1, §2, §3, §4, §5
As part of these investigations, HMB-butyl ester and HMB obtained from the hydrolysis were recovered from the reaction mixture through portioning in ethyl acetate and […] bicarbonate solution. The HMB acid was recovered from the bicarbonate solution; it was introduced into an enantioselective HPLC system. The recovered HMB-butyl ester was hydrolyzed with 6N HCl (chemically) and then introduced into the enantioselective HPLC system. Chromatograms of HMB enantiomers obtained after non-enzymatic and PPL catalyzed HMB-butyl ester hydrolysis are illustrated in FIGS. 7A-B respectively.

[6] = Hydrolysis of HMB propyl ester with alginate beads without enzymes (control); format: physicochemical; conditions: water, 37° C., 2 hours and 3.30 hours
Experimental: Reversed phase chromatography method was used for all the chromatograms set forth in the drawings. The mobile phases chosen were water +0.1% trifluroacetic acid (TFA) (solvent A) and acetonitrile +0.1% TFA (solvent B). The column was maintained at 30° C. The reaction was monitored at 220 nm and gradient elution for the mobile phases used was 0 to 55% solvent B in 30 min.
The hydrolysis of HMBP was also checked using alginate beads without enzymes(CONTROL). The gel beads were placed in a conical flask of water (20 ml) and HMB propyl ester (240 mg) were added to it. The mixture was thereafter maintained at a temperature of 37° C. The chromatograms of FIGS. 15A and 15B are obtained for the product formed, for the same time constraints as before.

[7] = target: T3, immobilized PPL (Sus scrofa, UniProt P00591); test: Hydrolysis of HMB propyl ester using gel-bound (alginate-immobilized) PPL beads; format: biochemical, porcine; conditions: after a run of 3 hrs
T3 sequence (P00591 1-450): T2 sequence (P00591 1-450)
Experimental: Sodium alginate (500 mg), gelatin (300 mg) and water (9 ml) are introduced into and mixed in a 50 ml conical flask. The mix is then left undisturbed for 1 hour, after which the flask and its contents are autoclaved (120° C., 15 min.). The contents are then cooled at room temperature under continuous stirring. After the contents have cooled down, PPL (100 mg) in water (1 ml) is added to the flask and the contents stirred for further 15-20 min. Then glutaraldehyde (300 μl) is added to the flask contents and the mixture stirred for another 15 min. These contents are added drop-wise from a distance of around 10 cm by forcing them through the hypodermic needle in a 0.18M calcium chloride solution (2°-3° C.) . The gel breads solidify immediately upon contact with the calcium chloride solution, and after 30 min. are solidified. The solidified gel beads are washed 3-4 times with water to remove any loose enzyme from the surface.
The immobilized enzyme catalyst beads as prepared in the manner described in Example 6 were placed in a conical flask. […]
Reversed phase chromatography method was used for all the chromatograms set forth in the drawings. […] The reaction was monitored at 220 nm and gradient elution for the mobile phases used was 0 to 55% solvent B in 30 min.

SMILES	HMB/HMB-ester ratio for non-enzyme catalyzed hydrolysis [1]	extent of ester hydrolysis (in words) [2]	HMB/HMB-ester ratio for Aspergillus niger lipase catalyzed hydrolysis [2]	extent of ester hydrolysis (in words) [3]	HMB/HMB-ester ratio for Candida rugosa lipase catalyzed hydrolysis [3]	extent of ester hydrolysis (in words) [4]	HMB/HMB-ester ratio for Novo 435 (Candida antarctica) lipase catalyzed hydrolysis [4]	extent of ester hydrolysis (in words) [5]	HMB/HMB-ester ratio for PPL lipase catalyzed hydrolysis [5]	Enantioselectivity of hydrolysis: Free Acid (L/D) [5]	Enantioselectivity of hydrolysis: Ester (L/D) [5]	hydrolysis with alginate beads without enzymes [6]	conversion of ester to HMB acid [7] [%]	Enantioselectivity of hydrolysis: Free Acid (L/D) ([2]; lipase Aspergillus niger, chiral LC of HMB from bicarbonate layer)	Enantioselectivity of hydrolysis: Ester (L/D) ([2]; lipase Aspergillus niger, unhydrolyzed ester, chiral LC after 6N HCl hydrolysis)	ester hydrolyzed by non-enzymatic hydrolysis ([1]; FIG. 4A)	D- and L-HMB enantiomers obtained through chemical hydrolysis ([1]; non-enzymatic hydrolysis, FIG. 7A)	concentration of L-enantiomer relative to D-enantiomer of HMB obtained ([5]; PPL catalyzed hydrolysis, FIG. 7B)	Enantioselectivity of hydrolysis: Free Acid (L/D) ([3]; lipase Candida rugosa, chiral LC of HMB from bicarbonate layer)	Enantioselectivity of hydrolysis: Ester (L/D) ([3]; lipase Candida rugosa, unhydrolyzed ester, chiral LC after 6N HCl hydrolysis)
COC(=O)C(O)CCSC (centres unmarked) [HMB-methyl ester, HMB methyl ester]	1.45	partial	4.55	near completion	62.37	near completion	128	partial	2.53	–	–	–	–	–	–	–	–	–	–	–
CCCOC(=O)C(O)CCSC (centres unmarked) [HMB-propyl ester, HMB propyl ester]	0.09	–	149.24	–	84.45	–	52.27	–	1.69	75/25	22/78	no hydrolysis	50	–	–	–	–	–	–	–
CSCCC(O)C(=O)OC(C)C (centres unmarked) [HMB-isopropyl ester, HMB isopropyl ester]	0.36	–	0.81	–	9.8	–	165	–	3.3	–	–	–	–	68/32	32/68	–	–	–	–	–
CCCCOC(=O)C(O)CCSC (centres unmarked) [HMB-butyl ester, HMB butyl ester]	0.09	Essentially all	160.57	Essentially all	42.6	Essentially all	176.3	only partial	2.0	81/19	19/81	–	–	–	–	less than 1%	equal concentrations	nearly four times	–	–
CCOC(=O)C(O)CCSC (centres unmarked) [HMB-ethyl ester, HMB ethyl ester]	0.53	–	16.71	–	7.84	–	–	–	0.94	57/43	43/57	–	–	–	–	–	–	–	62/38	38/62
